Reference: publication doi:10.1101/2025.06.19.660642, “Discovery of orally bioavailable Zika and West Nile Virus antiviral compounds targeting the NS2B-NS3 protease” (bioRxiv, 2025)
pKi: −log10 of the molar value.

Molecular target: T1, ZIKV NS2B-NS3 protease (Zika virus, UniProt A0A024B7W1)
T1 construct: directed at the co-expressed ZIKV NS2B-NS3 protease
Assay: ZIKV NS2B-NS3 protease biochemical FRET assay
Conditions: @ 100 μM

T1 sequence (A0A024B7W1 1503-1680): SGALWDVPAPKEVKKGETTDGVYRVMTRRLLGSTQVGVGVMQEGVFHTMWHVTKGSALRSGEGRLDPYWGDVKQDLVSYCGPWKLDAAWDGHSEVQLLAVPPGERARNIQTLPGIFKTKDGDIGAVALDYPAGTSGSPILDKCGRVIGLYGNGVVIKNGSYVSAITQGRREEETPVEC
T1 sequence (A0A024B7W1 1425-1464): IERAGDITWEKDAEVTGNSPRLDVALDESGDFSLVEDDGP

Molecule | inhibition in biochemical assay
CC(C)(CO)NC(=O)c1cccc(Cl)c1 [Z68299550] | n.i.

Same assay, conditions: Ligand efficiency = pKi / heavy atom count

Molecule | Ligand efficiency (LE)
O=C(Nc1cc(Cl)cc(C(=O)Nc2ccc3c(c2)CNC3)c1)OCc1ccccc1 [ASAP-0020915] | 0.316
NCc1cccc(NC(=O)c2cc(Cl)cc3[nH]ncc23)c1 [ASAP-0023261] | 0.407

Same assay, conditions: ZIKV NS2B-NS3 Ki

Molecule | pKi
NCc1cccc(NC(=O)c2cc(Cl)cc3[nH]ncc23)c1 [ASAP-0023261] | 6.10

Same assay, conditions: ZIKV NS2B-NS3 Ki (uM), library 1, supplement

Molecule | Ki [µM]
Cc1c(CN)cccc1NC(=O)c1cc(Cl)cc(NC(=O)OCc2ccccc2)c1 [ASAP-0021118, Cc1c(CN)cccc1NC(=O)c1cc(Cl)cc(NC(=O)OCc2ccccc2)c1] | 40.1
NCC12CC(NC(=O)c3cc(Cl)cc(NC(=O)OCc4ccccc4)c3)(CCO1)C2 [ASAP-0021607, NCC12CC(NC(=O)c3cc(Cl)cc(NC(=O)OCc4ccccc4)c3)(CCO1)C2] | > 89.3
NCCNC(=O)c1cc(Cl)cc(NC(=O)OCc2ccccc2)c1 [ASAP-0017736, NCCNC(=O)c1cc(Cl)cc(NC(=O)OCc2ccccc2)c1] | > 89.3
Cc1ccc(NC(=O)c2cc(Cl)cc(NC(=O)OCc3ccccc3)c2)cc1CN [ASAP-0021119, Cc1ccc(NC(=O)c2cc(Cl)cc(NC(=O)OCc3ccccc3)c2)cc1CN] | 9.81
NCc1cn(CCNC(=O)c2cc(Cl)cc(NC(=O)OCc3ccccc3)c2)nn1 [ASAP-0021085, NCc1cn(CCNC(=O)c2cc(Cl)cc(NC(=O)OCc3ccccc3)c2)nn1] | > 89.3
NC[C@H]1CC[C@H](NC(=O)c2cc(Cl)cc(NC(=O)OCc3ccccc3)c2)CC1 [ASAP-0017626, NC[C@H]1CC[C@H](NC(=O)c2cc(Cl)cc(NC(=O)OCc3ccccc3)c2)CC1] | > 89.3
CN1CCc2nc(NC(=O)c3cc(Cl)cc(NC(=O)OCc4ccccc4)c3)sc2C1 [ASAP-0020935, CN1CCc2nc(NC(=O)c3cc(Cl)cc(NC(=O)OCc4ccccc4)c3)sc2C1] | > 89.3
CN(C)Cc1cc(NC(=O)c2cc(Cl)cc(NC(=O)OCc3ccccc3)c2)sn1 [ASAP-0020825, CN(C)Cc1cc(NC(=O)c2cc(Cl)cc(NC(=O)OCc3ccccc3)c2)sn1] | > 89.3
CN(C(=O)c1cc(Cl)cc(NC(=O)OCc2ccccc2)c1)c1ccc(CN)cc1 [ASAP-0017677, CN(C(=O)c1cc(Cl)cc(NC(=O)OCc2ccccc2)c1)c1ccc(CN)cc1] | > 89.3
Cn1nc(CCN)nc1NC(=O)c1cc(Cl)cc(NC(=O)OCc2ccccc2)c1 [ASAP-0021177, Cn1nc(CCN)nc1NC(=O)c1cc(Cl)cc(NC(=O)OCc2ccccc2)c1] | 28.1
O=C(Nc1cc(Cl)cc(C(=O)Nc2cccc3c2CNC3)c1)OCc1ccccc1 [ASAP-0021189, O=C(Nc1cc(Cl)cc(C(=O)Nc2cccc3c2CNC3)c1)OCc1ccccc1] | 67.8
CN1CCn2nc(NC(=O)c3cc(Cl)cc(NC(=O)OCc4ccccc4)c3)cc2C1 [ASAP-0020900, CN1CCn2nc(NC(=O)c3cc(Cl)cc(NC(=O)OCc4ccccc4)c3)cc2C1] | > 89.3
NCc1cc(F)cc(NC(=O)c2cc(Cl)cc(NC(=O)OCc3ccccc3)c2)c1 [ASAP-0021659, NCc1cc(F)cc(NC(=O)c2cc(Cl)cc(NC(=O)OCc3ccccc3)c2)c1] | 5.26
O=C(Nc1cc(Cl)cc(C(=O)Nc2cnc3n2CCNC3)c1)OCc1ccccc1 [ASAP-0021001, O=C(Nc1cc(Cl)cc(C(=O)Nc2cnc3n2CCNC3)c1)OCc1ccccc1] | > 89.3
NC1(c2cccc(NC(=O)c3cc(Cl)cc(NC(=O)OCc4ccccc4)c3)c2)CCC1 [ASAP-0017671, NC1(c2cccc(NC(=O)c3cc(Cl)cc(NC(=O)OCc4ccccc4)c3)c2)CCC1] | > 89.3
O=C(Nc1cc(Cl)cc(C(=O)NCCC2COCCN2)c1)OCc1ccccc1 (stereo not drawn) [ASAP-0022490, O=C(NC1=CC(Cl)=CC(C(=O)NCC[C@H]2COCCN2)=C1)OCC1=CC=CC=C1 ¦&1:14¦] | > 89.3
O=C(Nc1cc(Cl)cc(C(=O)Nc2nc3c(s2)CCNC3)c1)OCc1ccccc1 [ASAP-0021029, O=C(Nc1cc(Cl)cc(C(=O)Nc2nc3c(s2)CCNC3)c1)OCc1ccccc1] | 48
NC12CCC(CNC(=O)c3cc(Cl)cc(NC(=O)OCc4ccccc4)c3)(CC1)OC2 [ASAP-0021132, NC12CCC(CNC(=O)c3cc(Cl)cc(NC(=O)OCc4ccccc4)c3)(CC1)OC2] | 29.7
NC[C@H]1CC[C@H](CNC(=O)c2cc(Cl)cc(NC(=O)OCc3ccccc3)c2)CC1 [ASAP-0017744, NC[C@H]1CC[C@H](CNC(=O)c2cc(Cl)cc(NC(=O)OCc3ccccc3)c2)CC1] | 23.1
NCCc1cccc(NC(=O)c2cc(Cl)cc(NC(=O)OCc3ccccc3)c2)c1 [ASAP-0017670, NCCc1cccc(NC(=O)c2cc(Cl)cc(NC(=O)OCc3ccccc3)c2)c1] | 3.51

Molecule | Ki [µM]
O=C(Nc1cc(Cl)cc(C(=O)Nc2ccnc(OC3CNC3)c2)c1)OCc1ccccc1 [ASAP-0021594, O=C(Nc1cc(Cl)cc(C(=O)Nc2ccnc(OC3CNC3)c2)c1)OCc1ccccc1] | 59.3
NCCCc1ccc(F)c(NC(=O)c2cc(Cl)cc(NC(=O)OCc3ccccc3)c2)c1 [ASAP-0021296, NCCCc1ccc(F)c(NC(=O)c2cc(Cl)cc(NC(=O)OCc3ccccc3)c2)c1] | 5.63
NCc1nccc(NC(=O)c2cc(Cl)cc(NC(=O)OCc3ccccc3)c2)n1 [ASAP-0017603, NCc1nccc(NC(=O)c2cc(Cl)cc(NC(=O)OCc3ccccc3)c2)n1] | > 89.3
O=C(Nc1cc(Cl)cc(C(=O)Nc2cccc(CC3CCNCC3)c2)c1)OCc1ccccc1 [ASAP-0017638, O=C(Nc1cc(Cl)cc(C(=O)Nc2cccc(CC3CCNCC3)c2)c1)OCc1ccccc1] | > 89.3
NCC1CCN(C(=O)c2cc(Cl)cc(NC(=O)OCc3ccccc3)c2)CC1 [ASAP-0017689, NCC1CCN(C(=O)c2cc(Cl)cc(NC(=O)OCc3ccccc3)c2)CC1] | 87.4
O=C(Nc1cc(Cl)cc(C(=O)Nc2n[nH]c3c2CNC32CC2)c1)OCc1ccccc1 [ASAP-0021028, O=C(Nc1cc(Cl)cc(C(=O)Nc2n[nH]c3c2CNC32CC2)c1)OCc1ccccc1] | > 89.3
O=C(Nc1cc(Cl)cc(C(=O)Nc2nc3c(s2)CNC3)c1)OCc1ccccc1 [ASAP-0021026, O=C(Nc1cc(Cl)cc(C(=O)Nc2nc3c(s2)CNC3)c1)OCc1ccccc1] | 76.9
CN(C)Cc1csc(NC(=O)c2cc(Cl)cc(NC(=O)OCc3ccccc3)c2)n1 [ASAP-0021243, CN(C)Cc1csc(NC(=O)c2cc(Cl)cc(NC(=O)OCc3ccccc3)c2)n1] | > 89.3
Cc1cc(CN)cc(NC(=O)c2cc(Cl)cc(NC(=O)OCc3ccccc3)c2)c1 [ASAP-0021201, Cc1cc(CN)cc(NC(=O)c2cc(Cl)cc(NC(=O)OCc3ccccc3)c2)c1] | 4.63
O=C(Nc1cc(Cl)cc(C(=O)Nc2n[nH]c3c2CNC3)c1)OCc1ccccc1 [ASAP-0021061, O=C(Nc1cc(Cl)cc(C(=O)Nc2n[nH]c3c2CNC3)c1)OCc1ccccc1] | 36.1
O=C(Nc1cc(Cl)cc(C(=O)NCc2n[nH]c3c2CNCC3)c1)OCc1ccccc1 [ASAP-0021271, O=C(Nc1cc(Cl)cc(C(=O)NCc2n[nH]c3c2CNCC3)c1)OCc1ccccc1] | > 89.3
NC[C@]1(F)C[C@@H](NC(=O)c2cc(Cl)cc(NC(=O)OCc3ccccc3)c2)C1 [ASAP-0021480, NC[C@]1(F)C[C@@H](NC(=O)c2cc(Cl)cc(NC(=O)OCc3ccccc3)c2)C1] | 61.6
O=C(Nc1cc(Cl)cc(C(=O)Nc2ncc3n2CCNC3)c1)OCc1ccccc1 [ASAP-0020975, O=C(Nc1cc(Cl)cc(C(=O)Nc2ncc3n2CCNC3)c1)OCc1ccccc1] | > 89.3
NCc1ccc(NC(=O)c2cc(Cl)cc(NC(=O)OCc3ccccc3)c2)cc1 [ASAP-0017575, NCc1ccc(NC(=O)c2cc(Cl)cc(NC(=O)OCc3ccccc3)c2)cc1] | 9.23
O=C(Nc1cc(Cl)cc(C(=O)Nc2cccc(C3CCNCC3)c2)c1)OCc1ccccc1 [ASAP-0017708, O=C(Nc1cc(Cl)cc(C(=O)Nc2cccc(C3CCNCC3)c2)c1)OCc1ccccc1] | 11.2
NCCc1nsc(NC(=O)c2cc(Cl)cc(NC(=O)OCc3ccccc3)c2)n1 [ASAP-0021153, NCCc1nsc(NC(=O)c2cc(Cl)cc(NC(=O)OCc3ccccc3)c2)n1] | > 89.3
O=C(Nc1cc(Cl)cc(C(=O)Nc2ccc3c(c2)CNCCO3)c1)OCc1ccccc1 [ASAP-0021552, O=C(Nc1cc(Cl)cc(C(=O)Nc2ccc3c(c2)CNCCO3)c1)OCc1ccccc1] | 6.9
NCCCc1ccnc(NC(=O)c2cc(Cl)cc(NC(=O)OCc3ccccc3)c2)c1 [ASAP-0021210, NCCCc1ccnc(NC(=O)c2cc(Cl)cc(NC(=O)OCc3ccccc3)c2)c1] | 16.5
CNCc1cccc(NC(=O)c2cc(Cl)cc(NC(=O)OCc3ccccc3)c2)c1 [ASAP-0021616, CNCc1cccc(NC(=O)c2cc(Cl)cc(NC(=O)OCc3ccccc3)c2)c1] | 17.6

Same assay, conditions: library 1, supplement

Molecule | ZIKV NS2B-NS3 pKi
O=C(Nc1cc(Cl)cc(C(=O)NC[C@@H]2CCNC3(CC3)C2)c1)OCc1ccccc1 [ASAP-0021400, O=C(Nc1cc(Cl)cc(C(=O)NC[C@@H]2CCNC3(CC3)C2)c1)OCc1ccccc1 ¦&1:13¦] | < 4.05
O=C(Nc1cc(Cl)cc(C(=O)Nc2ccc3c(c2)CNC3)c1)OCc1ccccc1 [ASAP-0020915] | 6.77
C=CC[C@@]1(NC(=O)c2cc(Cl)cc(NC(=O)OCc3ccccc3)c2)CCNC1 [ASAP-0021490, C=CC[C@@]1(NC(=O)c2cc(Cl)cc(NC(=O)OCc3ccccc3)c2)CCNC1 ¦&1:3¦] | < 4.05
O=C(Nc1cc(Cl)cc(C(=O)NC[C@@H]2CNCCC2(F)F)c1)OCc1ccccc1 [ASAP-0021511, O=C(Nc1cc(Cl)cc(C(=O)NC[C@@H]2CNCCC2(F)F)c1)OCc1ccccc1 ¦&1:13¦] | < 4.05
O=C(Nc1cc(Cl)cc(C(=O)NC[C@H]2CNC3(CC3)CO2)c1)OCc1ccccc1 [ASAP-0021445, O=C(Nc1cc(Cl)cc(C(=O)NC[C@H]2CNC3(CC3)CO2)c1)OCc1ccccc1 ¦&1:13¦] | < 4.05
O=C(Nc1cc(Cl)cc(C(=O)NC2([C@H]3CCNC3)CC2)c1)OCc1ccccc1 [ASAP-0021452, O=C(Nc1cc(Cl)cc(C(=O)NC2([C@H]3CCNC3)CC2)c1)OCc1ccccc1 ¦&1:13¦] | < 4.05
C[C@@H](N)c1ccc(NC(=O)c2cc(Cl)cc(NC(=O)OCc3ccccc3)c2)cc1 [ASAP-0017733, C[C@@H](N)c1ccc(NC(=O)c2cc(Cl)cc(NC(=O)OCc3ccccc3)c2)cc1 ¦&1:1¦] | 4.88

Same assay, conditions: library 1, supplement; read-out: ZIKV NS2B-NS3 Ki

Molecule | pKi
O=C(Nc1cc(Cl)cc(C(=O)NC[C@@H]2CCNC3(CC3)C2)c1)OCc1ccccc1 [ASAP-0021400, O=C(Nc1cc(Cl)cc(C(=O)NC[C@@H]2CCNC3(CC3)C2)c1)OCc1ccccc1 ¦&1:13¦] | < 4.05
O=C(Nc1cc(Cl)cc(C(=O)Nc2ccc3c(c2)CNC3)c1)OCc1ccccc1 [ASAP-0020915] | 6.79
C=CC[C@@]1(NC(=O)c2cc(Cl)cc(NC(=O)OCc3ccccc3)c2)CCNC1 [ASAP-0021490, C=CC[C@@]1(NC(=O)c2cc(Cl)cc(NC(=O)OCc3ccccc3)c2)CCNC1 ¦&1:3¦] | < 4.05
O=C(Nc1cc(Cl)cc(C(=O)NC[C@@H]2CNCCC2(F)F)c1)OCc1ccccc1 [ASAP-0021511, O=C(Nc1cc(Cl)cc(C(=O)NC[C@@H]2CNCCC2(F)F)c1)OCc1ccccc1 ¦&1:13¦] | < 4.05
O=C(Nc1cc(Cl)cc(C(=O)NC[C@H]2CNC3(CC3)CO2)c1)OCc1ccccc1 [ASAP-0021445, O=C(Nc1cc(Cl)cc(C(=O)NC[C@H]2CNC3(CC3)CO2)c1)OCc1ccccc1 ¦&1:13¦] | < 4.05
O=C(Nc1cc(Cl)cc(C(=O)NC2([C@H]3CCNC3)CC2)c1)OCc1ccccc1 [ASAP-0021452, O=C(Nc1cc(Cl)cc(C(=O)NC2([C@H]3CCNC3)CC2)c1)OCc1ccccc1 ¦&1:13¦] | < 4.05
C[C@@H](N)c1ccc(NC(=O)c2cc(Cl)cc(NC(=O)OCc3ccccc3)c2)cc1 [ASAP-0017733, C[C@@H](N)c1ccc(NC(=O)c2cc(Cl)cc(NC(=O)OCc3ccccc3)c2)cc1 ¦&1:1¦] | 4.88
